PMC11435058, “Synthesis of New Thiazole-Privileged Chalcones as Tubulin Polymerization Inhibitors with Potential Anticancer Activities” (Pharmaceuticals, 2024)
Read-outs that look alike come from different tables or passages of the source.

Tests used:
MCF7 = experiment: NCI-60 anticancer screen (SRB; single dose and five doses); settings: Homo sapiens
HOP-92 = experiment: as above; settings: Homo sapiens
IGROV1 = experiment: as above; settings: Homo sapiens
OVCAR-8 = experiment: as above; settings: Homo sapiens
SK-MEL-2 = experiment: as above; settings: Homo sapiens
[1] = tested on: 60 human tumor cell lines panel; experiment: NCI-60 anticancer screen, whole panel (means and ranges over the cell lines); format: cell-based; settings: for activity at 10 µM: Homo sapiens, 48 h, dose of 10 μM
SF-268 = experiment: NCI-60 anticancer screen (SRB; single dose and five doses); settings: Homo sapiens
HCT-15 = experiment: as above; settings: Homo sapiens
NCI-H322M = experiment: as above; settings: Homo sapiens
OVCAR-3 = experiment: cells; settings: Homo sapiens
K-562 = experiment: NCI-60 anticancer screen (SRB; single dose and five doses); settings: Homo sapiens
SNB-75 = experiment: as above
NCI-H522 = experiment: as above; settings: Homo sapiens
COLO 205 = experiment: as above; settings: Homo sapiens
ACHN = experiment: as above; settings: Homo sapiens
HS 578T = experiment: as above; settings: Homo sapiens
CAKI-1 = experiment: as above; settings: Homo sapiens
MDA-MB-468 = experiment: as above; format: cell-based, human
Summary of the method: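 Readout was sulforhodamine B staining, read spectrophotometrically as percent growth against untreated controls. This followed a 48 h exposure to one 10μM dose across roughly 60 human tumor lines of the NCI screen.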

NCI-H226 = experiment: as above; settings: Homo sapiens
U251 = experiment: as above; settings: Homo sapiens
HCT-116 = experiment: as above; settings: Homo sapiens
UO-31 = experiment: as above; settings: Homo sapiens
HT29 = experiment: as above; settings: Homo sapiens
EKVX = experiment: as above; settings: Homo sapiens
UACC-62 = experiment: as above; settings: Homo sapiens
[2] = five doses, mean graph midpoint over all cell lines
[3] = 48 h, read-out: Growth Percentage

For Cc1[nH]c(=S)sc1C(=O)/C=C/c1ccc(Cl)cc1 [2f, (E)-3-(4-Chlorophenyl)-1-(4-Methyl-2-Thioxo-2,3-Dihydrothiazol-5-yl)Prop-2-En-1-One], the GI50 (MCF7; MCF7) was 3.16 µM, the IC50 (MCF7; MCF7) was 4.68 µM and the activity at 10 µM (MCF7; MCF7, 48 h, read-out: Growth Percentage) was 4.86%. For the same compound, the CC50 (MCF7; MCF7, read-out: LC50) was 43.6 µM, the IC (TGI) (MCF7; MCF7, read-out: TGI) was 13.2 µM and the GI50 (HOP-92; HOP-92) was 11.5 µM. It also gave an IC50 (HOP-92; HOP-92) of 30.2 µM, an activity at 10 µM (HOP-92; HOP-92, 48 h, read-out: Growth Percentage) of 34.8% and a CC50 (HOP-92; HOP-92, read-out: LC50) of 63.1 µM. It also gave an IC (TGI) (HOP-92; HOP-92, read-out: TGI) of 26.9 µM, a GI50 (IGROV1; IGROV-1) of 13.2 µM and an IC50 (IGROV1; IGROV-1) of 25.7 µM. It also gave a CC50 (IGROV1; IGROV-1, read-out: LC50) of 93.3 µM, an IC (TGI) (IGROV1; IGROV-1, read-out: TGI) of 34.7 µM and a GI50 (OVCAR-8; OVCAR-8) of 8.51 µM. It also gave an IC50 (OVCAR-8; OVCAR-8) of 14.5 µM, an activity at 10 µM (OVCAR-8; OVCAR-8, 48 h, read-out: Growth Percentage) of 4.96% and a CC50 (OVCAR-8; OVCAR-8, read-out: LC50) of 55 µM. The IC (TGI) (OVCAR-8; OVCAR-8, read-out: TGI) was 22.9 µM, the GI50 (SK-MEL-2; SK-MEL-2) was 13.8 µM and the IC50 (SK-MEL-2; SK-MEL-2) was 27.5 µM. The activity at 10 µM (SK-MEL-2; SK-MEL-2, 48 h, read-out: Growth Percentage) was 58.4%, the CC50 (SK-MEL-2; SK-MEL-2, read-out: LC50) was 56.2 µM and the IC (TGI) (SK-MEL-2; SK-MEL-2, read-out: TGI) was 28.2 µM. For the same compound, the activity at 10 µM ([1]; mean over the tested cell lines, read-out: Mean growth percentage) was 23.7%, the activity at 10 µM ([1]; range over the cell lines, read-out: growth percentages against most of the tested cells (lowest to highest)) was -48.1 to 106% and the “Log10GI50 _MID” value [1, 2] was -5.13 Molar. For the same compound, the “Log10LC50 _MID” value [1, 2] was -4.23 Molar, the “Log10TGI _MID” value [1, 2] was -4.63 Molar and the GI50 (SF-268; SF-268) was 12 µM. The IC50 (SF-268; SF-268) was 24.6 µM, the activity at 10 µM (SF-268; SF-268, 48 h, read-out: Growth Percentage) was 67.9% and the CC50 (SF-268; SF-268, read-out: LC50) was 64.6 µM. For the same compound, the IC (TGI) (SF-268; SF-268, read-out: TGI) was 28.2 µM, the GI50 (HCT-15; HCT-15) was 4.07 µM and the IC50 (HCT-15; HCT-15) was 5.37 µM. The activity at 10 µM (HCT-15; HCT-15, 48 h, read-out: Growth Percentage) was -19.8%, the CC50 (HCT-15; HCT-15, read-out: LC50) was 49 µM and the IC (TGI) (HCT-15; HCT-15, read-out: TGI) was 16.6 µM. For the same compound, the GI50 (NCI-H322M) was 10.2 µM, the IC50 (NCI-H322M) was 19.9 µM and the CC50 (NCI-H322M; read-out: LC50) was 51.3 µM. The IC (TGI) (NCI-H322M; read-out: TGI) was 22.9 µM, the GI50 (OVCAR-3; OVCAR-3) was 2.82 µM and the activity at 10 µM (OVCAR-3; OVCAR-3, 48 h, read-out: Growth Percentage) was -24.2%. The IC50 (OVCAR-3; OVCAR-3, OVCAR-3, five doses) was 2.82 µM, the IC50 (OVCAR-3; OVCAR-3, five-dose, Ovarian Cancer OVCAR-3) was 6.46 µM and the CC50 (OVCAR-3; OVCAR-3, read-out: LC50) was 33.1 µM. The IC (TGI) (OVCAR-3; OVCAR-3, read-out: TGI) was 10.7 µM, the GI50 (K-562; K562) was 3.89 µM and the IC50 (K-562; K562) was 4.68 µM. For the same compound, the activity at 10 µM (K-562; K562, 48 h, read-out: Growth Percentage) was 7.94%, the CC50 (K-562; K562, read-out: LC50) was over 100 µM and the IC (TGI) (K-562; K562, read-out: TGI) was over 100 µM. It also gave a GI50 (SNB-75; Homo sapiens, SNB-75) of 2.19 µM, an IC50 (SNB-75; Homo sapiens, SNB-75) of 8.51 µM and a CC50 (SNB-75; Homo sapiens, SNB-75, read-out: LC50) of 28.8 µM. The TGI (SNB-75; five-dose, CNS Cancer SNB-75) was 6.76 µM, the GI50 (NCI-H522; NCI-H522) was 11.8 µM and the IC50 (NCI-H522; NCI-H522) was 22.4 µM. The activity at 10 µM (NCI-H522; NCI-H522, 48 h, read-out: Growth Percentage) was 13.5%, the CC50 (NCI-H522; NCI-H522, read-out: LC50) was 52.5 µM and the IC (TGI) (NCI-H522; NCI-H522, read-out: TGI) was 25.1 µM. It also gave a GI50 (COLO 205; COLO 205) of 19.1 µM, an IC50 (COLO 205; COLO 205) of 33.9 µM and an activity at 10 µM (COLO 205; COLO 205, 48 h, read-out: Growth Percentage) of 78.2%. The CC50 (COLO 205; COLO 205, read-out: LC50) was 74.1 µM, the IC (TGI) (COLO 205; COLO 205, read-out: TGI) was 38 µM and the GI50 (ACHN) was 13.8 µM. The IC50 (ACHN) was 24 µM, the activity at 10 µM (ACHN; [3]) was 34.6% and the CC50 (ACHN; read-out: LC50) was 51.3 µM. The IC (TGI) (ACHN; read-out: TGI) was 26.9 µM, the GI50 (HS 578T) was 21.4 µM and the IC50 (HS 578T) was over 100 µM. The activity at 10 µM (HS 578T; [3]) was 48%, the CC50 (HS 578T; read-out: LC50) was over 100 µM and the IC (TGI) (HS 578T; read-out: TGI) was 77.6 µM. The GI50 (CAKI-1; CAKI-1) was 4.47 µM, the IC50 (CAKI-1; CAKI-1) was 8.71 µM and the activity at 10 µM (CAKI-1; CAKI-1, 48 h, read-out: Growth Percentage) was 53.2%. It also gave a CC50 (CAKI-1; CAKI-1, read-out: LC50) of 43.6 µM, an IC (TGI) (CAKI-1; CAKI-1, read-out: TGI) of 17.4 µM and an activity at 10 µM (MDA-MB-468; Homo sapiens, 48 h, MDA-MB-468, dose of 10 μM, read-out: Growth Percentage) of -21.2%. For the same compound, the IC50 (MDA-MB-468; Homo sapiens, MDA-MB-468, MDA-MB-468, Breast Cancer, five dose) was 12 µM, the IC50 (MDA-MB-468; Homo sapiens, MDA-MB-468, MDA-MB-468, five doses) was 2.51 µM and the GI50 (MDA-MB-468; Homo sapiens, MDA-MB-468, Breast Cancer, five dose) was 2.51 µM. It also gave a CC50 (MDA-MB-468; Homo sapiens, MDA-MB-468, Breast Cancer, five dose, read-out: LC50 (the source's name)) of 30.2 µM, a TGI (MDA-MB-468; MDA-MB-468, Breast Cancer, five dose) of 8.32 µM and a GI50 (NCI-H226; NCI-H226) of 13.8 µM. It also gave an IC50 (NCI-H226; NCI-H226) of 36.3 µM, an activity at 10 µM (NCI-H226; NCI-H226, 48 h, read-out: Growth Percentage) of 20.5% and a CC50 (NCI-H226; NCI-H226, read-out: LC50) of over 100 µM. It also gave an IC (TGI) (NCI-H226; NCI-H226, read-out: TGI) of 38 µM, a GI50 (U251; U-251) of 3.39 µM and an IC50 (U251; U-251) of 4.79 µM. It also gave an activity at 10 µM (U251; U-251, 48 h, read-out: Growth Percentage) of 11.3%, a CC50 (U251; U-251, read-out: LC50) of 40.7 µM and an IC (TGI) (U251; U-251, read-out: TGI) of 13.2 µM. It also gave a GI50 (HCT-116; HCT-116) of 6.61 µM, an IC50 (HCT-116; HCT-116) of 7.94 µM and an activity at 10 µM (HCT-116; HCT-116, 48 h, read-out: Growth Percentage) of 6.98%. For the same compound, the CC50 (HCT-116; HCT-116, read-out: LC50) was 74.1 µM, the IC (TGI) (HCT-116; HCT-116, read-out: TGI) was 24.6 µM and the GI50 (UO-31; UO-31) was 4.07 µM. The IC50 (UO-31; UO-31) was 11.2 µM, the activity at 10 µM (UO-31; UO-31, 48 h, read-out: Growth Percentage) was 30.4% and the IC (TGI) (UO-31; UO-31, read-out: TGI) was 18.2 µM. It also gave a GI50 (HT29; HT-29) of 6.76 µM, an IC50 (HT29; HT-29) of 9.55 µM and an activity at 10 µM (HT29; HT-29, 48 h, read-out: Growth Percentage) of 31.2%. It also gave a CC50 (HT29; HT-29, read-out: LC50) of 53.7 µM, an IC (TGI) (HT29; HT-29, read-out: TGI) of 20.9 µM and a GI50 (EKVX) of 12.9 µM. The IC50 (EKVX) was 24 µM, the activity at 10 µM (EKVX; [3]) was 41% and the CC50 (EKVX; read-out: LC50) was 52.5 µM. It also gave an IC (TGI) (EKVX; read-out: TGI) of 26.3 µM, a GI50 (UACC-62; UACC-62) of 9.77 µM and an IC50 (UACC-62; UACC-62) of 17 µM. For the same compound, the activity at 10 µM (UACC-62; UACC-62, 48 h, read-out: Growth Percentage) was 33.9% and the IC (TGI) (UACC-62; UACC-62, read-out: TGI) was 22.4 µM.
